Measurements: article PMC8519103 (Chemmedchem, 2021)
Several values for one entry are separate records, joined by “and”; a condition that tells them apart may be missing. Identical values can stand only once.

test system: M. bovis BCG; assay: microbe, parasite or virus in culture; type: cell-based, Mycobacterium bovis DSM-43990 (BCGT); conditions: not given

SMILES | MIC50 relative to KD (MIC50 = x × KD)
C=CC(c1ccc(-c2ccc(OC)c(OC)c2)cc1)n1ccnc1 (stereo not drawn) [Compound S3, 1‐(1‐(3’,4’‐dimethoxy‐[1,1’‐biphenyl]‐4‐yl)allyl)‐1H‐imidazole] | > 2
C=CC(c1ccc(-c2ccc3c(c2)OCO3)cc1F)n1ccnc1 (stereo not drawn) [Compound S8] | > 2
C=CC(c1ccc(-c2ccc3[nH]ccc3c2)cc1)n1ccnc1 (stereo not drawn) [Compound S10, 5‐(4‐(1‐(1H‐imidazol‐1‐yl)allyl)phenyl)‐1H‐indole] | > 2
C=CC(c1ccc(-c2ccc3c(c2)OCO3)cc1)n1ccnc1 (stereo not drawn) [Compound S5, 1‐(1‐(4‐(benzo[d][1,3]dioxol‐5‐yl)phenyl)allyl)‐1H‐imidazole] | > 2
C=CC(c1ccc(-c2ccc(OC)c(C)c2)cc1)n1ccnc1 (stereo not drawn) [Compound S4, 1‐(1‐(4’‐methoxy‐3’‐methyl‐[1,1’‐biphenyl]‐4‐yl)allyl)‐1H‐imidazole] | > 2

same assay, conditions: Mycobacterium tuberculosis variant bovis BCG, BCG, read-out: MIC50

SMILES | IC50
Clc1ccc(COC(Cn2ccnc2)c2ccc(Cl)cc2Cl)cc1 (stereo not drawn) [Econazole, reference compound] | 2.6 µg/mL and 12.7 µM
